# Earlier results as cited in US11446274B2, “Use of dianhydrogalactitol or derivatives or analogs thereof for treatment of pediatric central nervous system malignancies” (DelMar Pharmaceuticals, Inc., priority 2015, dated 2022).
# Like-named read-outs stand apart in the source and are kept apart here.
# Legend:
# [1] = system: cells that are either MGMT-positive or MGMT-negative or MMR-proficient or MMR-deficient; conditions: cited from earlier work
# [2] = target: glycogen synthase kinase-3β (GSK-3β) (Homo sapiens, UniProt P49841); conditions: cited from earlier work
# Chain of glycogen synthase kinase-3β (GSK-3β) (P49841 whole entry, species assumed): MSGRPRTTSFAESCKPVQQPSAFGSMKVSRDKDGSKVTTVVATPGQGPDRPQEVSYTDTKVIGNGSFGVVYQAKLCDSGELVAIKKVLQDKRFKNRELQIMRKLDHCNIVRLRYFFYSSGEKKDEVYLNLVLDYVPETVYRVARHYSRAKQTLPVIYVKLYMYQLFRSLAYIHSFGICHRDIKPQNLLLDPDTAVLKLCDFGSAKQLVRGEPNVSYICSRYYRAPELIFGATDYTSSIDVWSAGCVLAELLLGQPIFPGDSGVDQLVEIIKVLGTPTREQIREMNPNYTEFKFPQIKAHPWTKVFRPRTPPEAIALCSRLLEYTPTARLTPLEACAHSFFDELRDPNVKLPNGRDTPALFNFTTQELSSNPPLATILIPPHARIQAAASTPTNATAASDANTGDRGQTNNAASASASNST
SMILES,"sensitivity ([1]; MGMT Negative, MMR-Deficient)","sensitivity ([1]; MGMT Negative, MMR-Proficient)","sensitivity ([1]; MGMT Positive, MMR-Deficient)","sensitivity ([1]; MGMT Positive, MMR-Proficient)",concentration for inhibition of GSK-3β [2]
N.N.[Cl][Pt][Cl] [cisplatin],Resistant,Sensitive,Resistant,Sensitive,–
"CN1C(=O)/C(=C2/C(=O)Nc3ccccc32)c2ccccc21 [Meisoindigo, meisoindigo]",–,–,–,–,5 to 50 nM
